Results from the NIST ThermoML archive (doi:10.1016/j.jct.2019.02.011).

Assay: xn = mol fraction of the nth substance listed
Conditions: Liquid, Vibrating tube method

COC(=O)OC [dimethyl carbonate] + CO
mass density [kg/m3]
Conditions	100 kPa	5000 kPa	10000 kPa	15000 kPa	20000 kPa	25000 kPa	30000 kPa	35000 kPa	40000 kPa
298.15 K, x1 = 0.0253	–	–	–	–	–	822.44	826.09	829.61	832.77
298.15 K, x1 = 0.0503	–	–	–	–	–	836.02	839.68	843.21	846.39
298.15 K, x1 = 0.0745	–	–	–	–	–	848.53	852.21	855.74	858.95
298.15 K, x1 = 0.101	–	–	–	–	–	861.5	865.23	868.78	872.01
298.15 K, x1 = 0.1502	–	–	–	–	–	883.85	887.6	891.17	894.43
298.15 K, x1 = 0.2059	–	–	–	–	–	906.93	910.69	914.23	917.53
298.15 K, x1 = 0.25	–	–	–	–	–	923.6	927.38	930.92	934.25
298.15 K, x1 = 0.3004	–	–	–	–	–	941.13	944.97	948.53	951.89
298.15 K, x1 = 0.3426	–	–	–	–	–	954.69	958.54	962.11	965.49
298.15 K, x1 = 0.3984	–	–	–	–	–	971.23	975.08	978.67	982.08
298.15 K, x1 = 0.4514	–	–	–	–	–	985.66	989.52	993.12	996.55
298.15 K, x1 = 0.5054	–	–	–	–	–	999.17	1003.04	1006.64	1010.1
298.15 K, x1 = 0.5509	–	–	–	–	1005.74	1009.72	1013.59	1017.21	1020.68
298.15 K, x1 = 0.6002	–	–	–	–	1016.28	1020.27	1024.16	1027.78	1031.27
298.15 K, x1 = 0.6469	–	–	–	–	1025.6	1029.6	1033.49	1037.12	1040.63
298.15 K, x1 = 0.6993	–	–	–	–	1035.37	1039.38	1043.27	1046.86	1050.38
298.15 K, x1 = 0.7496	–	–	–	–	1044.11	1048.12	1052.02	1055.62	1059.15
298.15 K, x1 = 0.799	–	–	–	–	1052.15	1056.12	1060.03	1063.63	1067.18
298.15 K, x1 = 0.837	–	–	–	–	1058.02	1061.99	1065.9	1069.51	1073.07
298.15 K, x1 = 0.9093	–	–	–	–	1068.61	1072.59	1076.46	1080.07	1083.65
298.15 K, x1 = 0.9239	–	–	–	–	1070.65	1074.63	1078.5	1082.11	1085.7
298.15 K, x1 = 0.9575	–	–	–	–	1075.22	1079.21	1083.09	1086.7	1090.29
298.15 K, x1 = 0.9861	–	–	–	–	1079.06	1083.05	1086.92	1090.54	1094.14
298.15 K, x1 = 1	–	–	–	–	1080.9	1084.89	1088.82	1092.44	1096.04
303.15 K, x1 = 0.0253	796.3	801.03	805.57	810.1	814.43	818.36	822.05	825.6	829
303.15 K, x1 = 0.0503	809.73	814.5	819.05	823.59	827.93	831.86	835.56	839.12	842.54
303.15 K, x1 = 0.0745	822.09	826.87	831.44	835.97	840.32	844.26	848.02	851.58	855.01
303.15 K, x1 = 0.101	834.96	839.75	844.32	848.86	853.22	857.21	860.97	864.54	867.99
303.15 K, x1 = 0.1502	857.02	861.81	866.4	870.99	875.37	879.38	883.14	886.72	890.21
303.15 K, x1 = 0.2059	879.85	884.65	889.26	893.85	898.26	902.32	906.14	909.73	913.3
303.15 K, x1 = 0.25	896.36	901.21	905.83	910.43	914.79	918.87	922.69	926.34	929.93
303.15 K, x1 = 0.3004	913.71	918.57	923.21	927.81	932.19	936.27	940.09	943.76	947.37
303.15 K, x1 = 0.3426	927.12	931.98	936.63	941.23	945.62	949.71	953.54	957.21	960.84
303.15 K, x1 = 0.3984	943.53	948.4	953.06	957.62	962.02	966.12	969.95	973.63	977.28
303.15 K, x1 = 0.4514	957.9	962.78	967.4	971.96	976.32	980.43	984.26	987.95	991.62
303.15 K, x1 = 0.5054	971.35	976.23	980.81	985.37	989.75	993.91	997.75	1001.4	1005.09
303.15 K, x1 = 0.5509	981.85	986.74	991.33	995.89	1000.23	1004.39	1008.28	1011.94	1015.64
303.15 K, x1 = 0.6002	992.37	997.25	1001.85	1006.41	1010.76	1014.93	1018.82	1022.49	1026.2
303.15 K, x1 = 0.6469	1001.6	1006.49	1011.1	1015.61	1019.97	1024.14	1028.04	1031.7	1035.43
303.15 K, x1 = 0.6993	1011.29	1016.13	1020.75	1025.26	1029.62	1033.8	1037.7	1041.37	1045.11
303.15 K, x1 = 0.7496	1019.99	1024.84	1029.41	1033.93	1038.25	1042.43	1046.33	1050.01	1053.76
303.15 K, x1 = 0.799	1028.01	1032.86	1037.44	1041.96	1046.28	1050.47	1054.37	1058.05	1061.82
303.15 K, x1 = 0.837	1033.85	1038.71	1043.24	1047.76	1052.09	1056.23	1060.13	1063.82	1067.59
303.15 K, x1 = 0.9093	1044.36	1049.21	1053.76	1058.22	1062.51	1066.71	1070.62	1074.26	1078.04
303.15 K, x1 = 0.9239	1046.39	1051.25	1055.79	1060.26	1064.55	1068.75	1072.65	1076.3	1080.08
303.15 K, x1 = 0.9575	1050.95	1055.81	1060.36	1064.83	1069.12	1073.32	1077.23	1080.88	1084.67
303.15 K, x1 = 0.9861	1054.77	1059.63	1064.18	1068.65	1072.95	1077.15	1081.06	1084.71	1088.51
303.15 K, x1 = 1	1056.61	1061.47	1066.02	1070.49	1074.79	1078.99	1082.9	1086.6	1090.4
308.15 K, x1 = 0.0253	791.22	795.98	800.77	805.37	809.72	814	817.9	821.58	825.25
308.15 K, x1 = 0.0503	804.54	809.3	814.1	818.7	823.06	827.34	831.25	834.92	838.6
308.15 K, x1 = 0.0745	816.8	821.56	826.37	831.02	835.38	839.68	843.59	847.26	850.9
308.15 K, x1 = 0.101	829.61	834.41	839.23	843.89	848.26	852.56	856.52	860.19	863.84
308.15 K, x1 = 0.1502	851.5	856.36	861.2	865.86	870.28	874.59	878.57	882.29	885.94
308.15 K, x1 = 0.2059	874.17	879.02	883.88	888.55	892.98	897.3	901.3	905.01	908.67
308.15 K, x1 = 0.25	890.57	895.46	900.33	905.01	909.44	913.77	917.78	921.49	925.16
308.15 K, x1 = 0.3004	907.81	912.71	917.59	922.27	926.71	931.05	935.06	938.77	942.45
308.15 K, x1 = 0.3426	921.16	926.05	930.95	935.63	940.07	944.37	948.39	952.1	955.78
308.15 K, x1 = 0.3984	937.46	942.41	947.31	952	956.44	960.75	964.78	968.49	972.13
308.15 K, x1 = 0.4514	951.72	956.66	961.58	966.27	970.72	975.04	979.08	982.78	986.43
308.15 K, x1 = 0.5054	965.11	970.05	974.93	979.62	984.08	988.4	992.45	996.15	999.81
308.15 K, x1 = 0.5509	975.56	980.5	985.39	990.08	994.54	998.87	1002.92	1006.62	1010.28
308.15 K, x1 = 0.6002	986.01	990.95	995.85	1000.49	1004.95	1009.29	1013.4	1017.09	1020.76
308.15 K, x1 = 0.6469	995.19	1000.13	1005.03	1009.68	1014.14	1018.48	1022.55	1026.24	1029.87
308.15 K, x1 = 0.6993	1004.82	1009.76	1014.62	1019.27	1023.74	1028.03	1032.11	1035.8	1039.42
308.15 K, x1 = 0.7496	1013.47	1018.4	1023.27	1027.93	1032.35	1036.65	1040.72	1044.41	1048.05
308.15 K, x1 = 0.799	1021.43	1026.37	1031.19	1035.85	1040.27	1044.57	1048.66	1052.34	1055.98
308.15 K, x1 = 0.837	1027.27	1032.2	1037.04	1041.64	1046.06	1050.37	1054.46	1058.14	1061.73
308.15 K, x1 = 0.9093	1037.72	1042.65	1047.49	1052.1	1056.52	1060.79	1064.88	1068.56	1072.16
308.15 K, x1 = 0.9239	1039.75	1044.68	1049.52	1054.13	1058.56	1062.82	1066.87	1070.55	1074.15
308.15 K, x1 = 0.9575	1044.31	1049.24	1054.08	1058.69	1063.12	1067.39	1071.43	1075.12	1078.72
308.15 K, x1 = 0.9861	1048.07	1053	1057.85	1062.46	1066.89	1071.16	1075.26	1078.94	1082.54
308.15 K, x1 = 1	1049.91	1054.84	1059.69	1064.3	1068.73	1073	1077.1	1080.78	1084.38
